Laboratory results from BindingDB's records for doi:10.1016/j.bmcl.2014.07.074 (Riken-Max Planck Joint Research Center For Systems Chemical …, 2014).

What was measured:
[1] = Inhibition of human N-terminally His6-tagged N-acetylglucosaminyltransferase 3 expressed in HEK293T cells assessed as GN-GnGnbi-PAs molar ratio level incubated for 1 hr using 5 uM GnGnbi-PA acceptor substrate and 0.5 to 4 mM UDP-GlcNAc donor substrate by reverse phase HPLC method
[2] = Inhibition of human N-terminally His6-tagged N-acetylglucosaminyltransferase 3 expressed in HEK293T cells assessed as GN-GnGnbi-PAs molar ratio level incubated for 1 hr using 2.5 to 10 uM GnGnbi-PA acceptor substrate and 20 mM UDP-GlcNAc donor substrate by reverse phase HPLC method

Structure (SMILES): CO[C@H]1O[C@H](CO[C@H]2O[C@H](CO)[C@@H](O)[C@H](O)[C@@H]2O[C@@H]2O[C@H](CO)[C@@H](O)[C@H](O)[C@H]2NC(C)=O)[C@@H](O)[C@H](O[C@H]2O[C@H](CO)[C@@H](O)[C@H](O)[C@@H]2O[C@@H]2O[C@H](CO)[C@@H](O)[C@H](O)[C@H]2NC(C)=O)[C@@H]1O
- Ki [1]: 1.4 mM
- Ki [2]: 1.2 mM

Structure (SMILES): CO[C@H]1O[C@H](CO[C@H]2O[C@H](CO)[C@@H](O)[C@H](O)[C@@H]2O[C@@H]2O[C@H](CO)[C@@H](O)[C@H](O)[C@H]2NC(C)=O)[C@@H](O[C@@H]2O[C@H](CO)[C@@H](O)[C@H](O)[C@H]2NC(C)=O)[C@H](O[C@H]2O[C@H](CO)[C@@H](O)[C@H](O)[C@@H]2O[C@@H]2O[C@H](CO)[C@@H](O)[C@H](O)[C@H]2NC(C)=O)[C@@H]1O
- Ki [1]: 1.5 mM
- Ki [2]: 14 mM
